The target in one test is T1, DDR1 (Homo sapiens, UniProt Q08345).
T1 construct: purchased Carna Biosciences
As to the kind of experiment: LanthaScreen Europium Kinase Binding assay, DDR1. The note with it: 5 nM DDR1, 20 nM Kinase Tracer 178, 1 h at rt; Ki from IC50 by Cheng-Prusoff; read-out: Ki DDR1. Here is the method: (§1) DDR1 and DDR2 binding assays were performed using Life Technologies LanthaScreen™ Europium Kinase Binding assay. […] IC50 values were determined in GraphPad Prism 7.0 software, using 4 parameter model: log (inhibitor) vs. response. IC50 values were converted in Ki using the Cheng-Prusoff equation (Ki-IC50/(1+ [Tracer]/Kd).

The next test deals with T2, DDR2 (Homo sapiens, UniProt Q16832).
T2 construct: purchased Life Technologies
T2 sequence (Q16832 22-855): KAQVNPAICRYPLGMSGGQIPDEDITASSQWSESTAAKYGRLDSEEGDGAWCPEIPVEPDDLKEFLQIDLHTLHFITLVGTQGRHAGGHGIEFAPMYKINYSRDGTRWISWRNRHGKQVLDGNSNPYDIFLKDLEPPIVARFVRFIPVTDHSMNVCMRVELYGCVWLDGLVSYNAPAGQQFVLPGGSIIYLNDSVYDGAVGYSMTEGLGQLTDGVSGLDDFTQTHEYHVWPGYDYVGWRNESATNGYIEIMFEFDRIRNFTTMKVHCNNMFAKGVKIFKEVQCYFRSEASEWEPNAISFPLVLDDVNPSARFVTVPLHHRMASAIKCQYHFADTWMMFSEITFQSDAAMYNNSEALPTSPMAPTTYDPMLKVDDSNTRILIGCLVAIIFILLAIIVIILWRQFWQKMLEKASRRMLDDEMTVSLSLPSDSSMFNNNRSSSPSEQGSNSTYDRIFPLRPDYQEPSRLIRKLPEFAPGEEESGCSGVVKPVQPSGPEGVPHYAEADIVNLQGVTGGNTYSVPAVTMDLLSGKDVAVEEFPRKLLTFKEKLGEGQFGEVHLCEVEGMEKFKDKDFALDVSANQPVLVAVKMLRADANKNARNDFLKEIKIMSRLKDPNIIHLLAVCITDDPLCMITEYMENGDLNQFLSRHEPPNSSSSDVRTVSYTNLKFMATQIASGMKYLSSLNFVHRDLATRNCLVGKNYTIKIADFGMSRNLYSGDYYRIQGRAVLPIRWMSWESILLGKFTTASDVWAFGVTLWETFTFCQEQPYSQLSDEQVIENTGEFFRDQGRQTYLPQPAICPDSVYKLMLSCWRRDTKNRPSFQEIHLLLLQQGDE
As to the kind of experiment: LanthaScreen Europium Kinase Binding assay, DDR2. The following applies: 5 nM DDR2, 10 nM Kinase Tracer 178, 1 h at rt; Ki from IC50 by Cheng-Prusoff; read-out: Ki DDR2. Here is the method: as §1

T1 sequence (Q08345 19-913): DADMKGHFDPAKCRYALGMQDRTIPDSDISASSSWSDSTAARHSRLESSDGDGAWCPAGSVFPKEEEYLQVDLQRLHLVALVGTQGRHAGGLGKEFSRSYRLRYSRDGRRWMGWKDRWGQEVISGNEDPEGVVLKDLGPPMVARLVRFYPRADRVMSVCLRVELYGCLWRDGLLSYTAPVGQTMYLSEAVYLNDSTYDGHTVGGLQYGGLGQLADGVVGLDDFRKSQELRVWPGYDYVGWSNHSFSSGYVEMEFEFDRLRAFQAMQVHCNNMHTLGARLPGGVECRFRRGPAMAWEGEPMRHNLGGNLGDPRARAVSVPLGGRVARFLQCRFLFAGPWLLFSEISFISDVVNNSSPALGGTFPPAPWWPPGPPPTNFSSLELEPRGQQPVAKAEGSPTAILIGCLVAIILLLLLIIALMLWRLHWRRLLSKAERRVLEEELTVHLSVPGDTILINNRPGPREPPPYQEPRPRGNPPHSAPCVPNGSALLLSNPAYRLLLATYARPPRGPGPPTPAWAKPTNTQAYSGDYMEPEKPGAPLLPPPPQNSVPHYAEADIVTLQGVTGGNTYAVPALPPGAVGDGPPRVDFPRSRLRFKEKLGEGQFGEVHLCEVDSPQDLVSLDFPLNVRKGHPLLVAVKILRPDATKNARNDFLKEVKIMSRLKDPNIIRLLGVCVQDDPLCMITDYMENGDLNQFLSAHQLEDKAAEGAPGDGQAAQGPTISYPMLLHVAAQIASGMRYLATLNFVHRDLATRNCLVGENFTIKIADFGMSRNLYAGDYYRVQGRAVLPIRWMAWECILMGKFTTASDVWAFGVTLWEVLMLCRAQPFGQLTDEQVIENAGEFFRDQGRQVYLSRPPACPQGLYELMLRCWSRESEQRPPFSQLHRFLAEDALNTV

For `O=C(Nc1cc(OC(F)(F)F)ccn1)NC1CC2(C1)CN(C(=O)c1ccnc3[nH]ncc13)C2` [Example 154, 1-(2-(1H-pyrazolo[3,4-b]pyridine-4-carbonyl)-2-azaspiro[3.3]heptan-6-yl)-3-(4-(trifluoromethoxy)pyridin-2-yl)urea], the Ki at DDR1 is below 5 nM; on DDR2 it was 5 to 25 nM.

Take `Cn1ccn2ncc(C(=O)N3CC4(CC(NC(=O)Nc5cc(C6CC6)ccn5)C4)C3)c12` [Example 155, 1-(4-cyclopropylpyridin-2-yl)-3-(2-(1-methyl-1H-imidazo[1,2-b]pyrazole-7-carbonyl)-2-azaspiro[3.3]heptan-6-yl)urea]: the Ki at DDR1 is below 5 nM; at DDR2, 5 to 25 nM.

Regarding `CN(C(=O)Nc1cc(C2CC2)ccn1)C1CC2(C1)CN(C(=O)c1cnn3ccn(C)c13)C2` [Example 156, 3-(4-cyclopropylpyridin-2-yl)-1-methyl-1-(2-(1-methyl-1H-imidazo[1,2-b]pyrazole-7-carbonyl)-2-azaspiro[3.3]heptan-6-yl)urea], the Ki is below 5 nM on DDR1 and 5 to 25 nM at DDR2.

In the case of `CN(C(=O)Nc1cncc(C2CC2)c1)C1CC2(C1)CN(C(=O)c1cnn3ccn(C)c13)C2` [Example 157, 3-(5-cyclopropylpyridin-3-yl)-1-methyl-1-(2-(1-methyl-1H-imidazo[1,2-b]pyrazole-7-carbonyl)-2-azaspiro[3.3]heptan-6-yl)urea], the Ki was below 5 nM at DDR1 and 5 to 25 nM on DDR2.

For the compound `[2H]C([2H])([2H])N(C(=O)Nc1cccc(C(F)(F)F)c1)C1CC2(C1)CN(C(=O)c1cnn3ccn(C)c13)C2` [Example 158, 1-(methyl-d3)-1-(2-(1-methyl-1H-imidazo[1,2-b]pyrazole-7-carbonyl)-2-azaspiro[3.3]heptan-6-yl)-3-(3-(trifluoromethyl)phenyl)urea], the inhibitory constant (Ki) is below 5 nM on DDR1 and 5 to 25 nM at DDR2.

With `O=C(Nc1cncc(C(F)(F)F)c1)NC1CC2(C1)CN(C(=O)c1ccnc3[nH]ncc13)C2` [Example 159, 1-(2-(1H-pyrazolo[3,4-b]pyridine-4-carbonyl)-2-azaspiro[3.3]heptan-6-yl)-3-(5-(trifluoromethyl)pyridin-3-yl)urea], the figures for the Ki at DDR1 and at DDR2 were below 5 nM and 5 to 25 nM, respectively.

Turning to `Cn1ccc2ncnc(C(=O)N3CC4(CC(NC(=O)Nc5cccc(C(F)(F)F)c5)C4)C3)c21` [Example 160, 1-(2-(5-methyl-5H-pyrrolo[3,2-d]pyrimidine-4-carbonyl)-2-azaspiro[3.3]heptan-6-yl)-3-(3-(trifluoromethyl)phenyl)urea], the Ki at DDR1 and on DDR2 was 5 to 25 nM throughout.

`Cn1ccn2ncc(C(=O)N3CC4(CC(NC(=O)Nc5cccc(S(=O)(=O)C(F)(F)F)c5)C4)C3)c12` [Example 161, 1-(2-(1-methyl-1H-imidazo[1,2-b]pyrazole-7-carbonyl)-2-azaspiro[3.3]heptan-6-yl)-3-(3-((trifluoromethyl)sulfonyl)phenyl)urea]: the values for the Ki at DDR1 and at DDR2 were below 5 nM and 5 to 25 nM, respectively.

On to `O=C(Nc1cccc(SC(F)(F)F)c1)NC1CC2(C1)CN(C(=O)c1ccnc3[nH]ncc13)C2` [Example 162, 1-(2-(1H-pyrazolo[3,4-b]pyridine-4-carbonyl)-2-azaspiro[3.3]heptan-6-yl)-3-(3-((trifluoromethyl)thio)phenyl)urea], for which the inhibition constant Ki on DDR1 and at DDR2 was below 5 nM each time.

`O=C(Nc1ccc(C(F)(F)F)cn1)NC1CC2(C1)CN(c1cnc3[nH]ncc3c1)C2` [Example 163, 1-(2-(1H-pyrazolo[3,4-b]pyridin-5-yl)-2-azaspiro[3.3]heptan-6-yl)-3-(5-(trifluoromethyl)pyridin-2-yl)urea]: the Ki at DDR1 and at DDR2 was 5 to 25 nM in each case.

As for `CN(C(=O)Nc1cc(C(F)F)ccn1)C1CC2(C1)CN(C(=O)c1cnn3ccn(C)c13)C2` [Example 164, 3-(4-(difluoromethyl)pyridin-2-yl)-1-methyl-1-(2-(1-methyl-1H-imidazo[1,2-b]pyrazole-7-carbonyl)-2-azaspiro[3.3]heptan-6-yl)urea], the Ki on DDR1 is below 5 nM; at DDR2 it was 25 to 100 nM.

On to `Cc1ncc(C(F)(F)F)cc1NC(=O)NC1CC2(C1)CN(C(=O)c1cnn3ccsc13)C2` [Example 165, 1-(2-methyl-5-(trifluoromethyl)pyridin-3-yl)-3-(2-(pyrazolo[5,1-b]thiazole-7-carbonyl)-2-azaspiro[3.3]heptan-6-yl)urea], for which the Ki on DDR1 is below 5 nM; on DDR2 it was 5 to 25 nM.

For the compound `O=C(Nc1cccc(C(F)(F)F)c1)NC1CC2(C1)CN(C(=O)c1cnn3ccn(CC4COC4)c13)C2` [Example 166, 1-(2-(1-(oxetan-3-ylmethyl)-1H-imidazo[1,2-b]pyrazole-7-carbonyl)-2-azaspiro[3.3]heptan-6-yl)-3-(3-(trifluoromethyl)phenyl)urea], the Ki was below 5 nM on DDR1 and 5 to 25 nM on DDR2.

Consider `O=C(Nc1cccc(C(F)(F)F)c1)NC1CC2(C1)CN(C(=O)c1cnn3ccn(C4COC4)c13)C2` [Example 167, 1-(2-(1-(oxetan-3-yl)-1H-imidazo[1,2-b]pyrazole-7-carbonyl)-2-azaspiro[3.3]heptan-6-yl)-3-(3-(trifluoromethyl)phenyl)urea], for which the figures for the Ki at DDR1 and at DDR2 were below 5 nM and 5 to 25 nM, respectively.

Take `Cn1ccn2ncc(C(=O)N3CC4(CC(NC(=O)Nc5cc(C(F)(F)F)cc(C#N)n5)C4)C3)c12` [Example 168, 1-(6-cyano-4-(trifluoromethyl)pyridin-2-yl)-3-(2-(1-methyl-1H-imidazo[1,2-b]pyrazole-7-carbonyl)-2-azaspiro[3.3]heptan-6-yl)urea]: the values for the inhibition constant (Ki) at DDR1 and on DDR2 were below 5 nM and 5 to 25 nM, respectively.

With `CN(C(=O)Nc1cncc(C(F)(F)F)c1)C1CC2(C1)CN(C(=O)c1cnn3ccn(C)c13)C2` [Example 169, 1-methyl-1-(2-(1-methyl-1H-imidazo[1,2-b]pyrazole-7-carbonyl)-2-azaspiro[3.3]heptan-6-yl)-3-(5-(trifluoromethyl)pyridin-3-yl)urea], the Ki on DDR1 was below 5 nM; at DDR2 it was 5 to 25 nM.

In the case of `CN(C(=O)Nc1cc(C(F)(F)F)ncn1)C1CC2(C1)CN(C(=O)c1cnn3ccn(C)c13)C2` [Example 170, 1-methyl-1-(2-(1-methyl-1H-imidazo[1,2-b]pyrazole-7-carbonyl)-2-azaspiro[3.3]heptan-6-yl)-3-(6-(trifluoromethyl)pyrimidin-4-yl)urea], the Ki on DDR1 was 5 to 25 nM; on DDR2 it was above 100 nM.

`Cc1ncc(C(F)(F)F)cc1NC(=O)NC1CC2(C1)CN(C(=O)c1cnn3ccn(C)c13)C2` [Example 171, 1-(2-(1-methyl-1H-imidazo[1,2-b]pyrazole-7-carbonyl)-2-azaspiro[3.3]heptan-6-yl)-3-(2-methyl-5-(trifluoromethyl)pyridin-3-yl)urea]: the Ki at DDR1 is below 5 nM; at DDR2 it was 5 to 25 nM.

Take `CN(C(=O)Nc1cncc(OC(F)(F)F)c1)C1CC2(C1)CN(C(=O)c1cnn3ccn(C)c13)C2` [Example 172, 1-methyl-1-(2-(1-methyl-1H-imidazo[1,2-b]pyrazole-7-carbonyl)-2-azaspiro[3.3]heptan-6-yl)-3-(5-(trifluoromethoxy)pyridin-3-yl)urea]: the figures for the Ki on DDR1 and at DDR2 were below 5 nM and 5 to 25 nM, respectively.

`CN(C(=O)Nc1cncc(C(C)(F)F)c1)C1CC2(C1)CN(C(=O)c1cnn3ccn(C)c13)C2` [Example 173, 3-(5-(1,1-difluoroethyl)pyridin-3-yl)-1-methyl-1-(2-(1-methyl-1H-imidazo[1,2-b]pyrazole-7-carbonyl)-2-azaspiro[3.3]heptan-6-yl)urea]: the Ki on DDR1 was below 5 nM; at DDR2, 25 to 100 nM.

Consider `Cn1ccn2ncc(C(=O)N3CC4(CC(N(CC(F)(F)F)C(=O)Nc5cccc(C(F)(F)F)c5)C4)C3)c12` [Example 174, 1-(2-(1-methyl-1H-imidazo[1,2-b]pyrazole-7-carbonyl)-2-azaspiro[3.3]heptan-6-yl)-1-(2,2,2-trifluoroethyl)-3-(3-(trifluoromethyl)phenyl)urea], for which the results for the Ki at DDR1 and on DDR2 were below 5 nM and 5 to 25 nM, respectively.

As for `CN(C(=O)Nc1cncc(C(F)(F)F)c1)C1CC2(C1)CN(C(=O)c1cnn3ccncc13)C2` [Example 175, 1-methyl-1-(2-(pyrazolo[1,5-a]pyrazine-3-carbonyl)-2-azaspiro[3.3]heptan-6-yl)-3-(5-(trifluoromethyl)pyridin-3-yl)urea], the results for the Ki on DDR1 and at DDR2 were 5 to 25 nM and 25 to 100 nM, respectively.

The values above are taken from patent US20260285855A1, “HETEROARYL DERIVATIVES AS DDRS INHIBITORS” (CHIESI FARMACEUTICI S.P.A., priority 2023, published 2026).
